What was measured:
[1] = system: H460 lung carcinoma; assay: Cytotoxicity assay (MTT), 6 days; type: cell-based; conditions: Homo sapiens, NCI-H460, 144 h, 6 days of treatment, read-out: Toxicity 6d (IC 50, μM) H460
Method in brief: (§1)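 Six-day continuous treatment (0–50 μM; final DMSO 1%), then MTT (0.5 mg/ml, 3 h, 37° C) with DMSO-dissolved formazan read at 550 nm. Surviving fraction and IC50 determined.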

[2] = system: MCF-7 breast carcinoma; assay: Cytotoxicity assay (MTT), 6 days; type: cell-based; conditions: Homo sapiens, MCF7, 144 h, 6 days of treatment, read-out: Toxicity 6d (IC 50, μM) MCF7
Method in brief: as §1

[3] = system: MCF10-A; assay: Cytotoxicity assay (MTT), 6 days; type: cell-based; conditions: Homo sapiens, MCF-10A, 144 h, 6 days of treatment, read-out: Toxicity 6d (IC 50, μM) MCF10-A
Method in brief: as §1

[4] = system: MDA-MB-231 breast carcinoma; assay: Cytotoxicity assay (MTT), 6 days; type: cell-based; conditions: Homo sapiens, MDA-MB-231, 144 h, 6 days of treatment, read-out: Toxicity 6d (IC 50, μM) MDA231
Method in brief: as §1

[5] = system: MRC-5; assay: Cytotoxicity assay (MTT), 6 days; type: cell-based; conditions: Homo sapiens, MRC5, 144 h, 6 days of treatment, read-out: Toxicity 6d (IC 50, μM) MRC-5
Method in brief: as §1

[6] = system: NIH3T3 mouse fibroblasts; assay: Cytotoxicity assay (MTT), 6 days; type: cell-based; conditions: NIH3T3, 144 h, 6 days of treatment, read-out: Toxicity 6d (IC 50, μM) NIH3T3
Method in brief: as §1

[7] = system: HCT116 colon adenocarcinoma; assay: Cytotoxicity assay (MTT), 6 days; type: cell-based, human; conditions: Homo sapiens, HCT-116, 144 h, 6 days of treatment, read-out: Toxicity 6d (IC 50, μM) HCT116
Method in brief: as §1

[8] = system: HCT116 cells; assay: Anchorage-independent growth assay (soft agar / Matrigel); type: cell-based, human; conditions: Homo sapiens, HCT-116, 168 h; HCT116, 3-dimensional growth, 1 week
Experimental: In order to evaluate the effect of the compounds on the capacity of tumor cells to grow without anchorage, HCT116 cells were seeded either in agar or in Matrigel (BD, France). For 3D growth experiment in soft agar in 24-well plates, 5.10^3 HCT116 cells were resuspended in 250 μl of complete medium containing 0.3% soft-agar (Difco) and different concentrations of compound (0.1, 1, 10, 17.5, 25 and 50 μM). Cells were then poured on a solidified layer of medium containing 0.5% of soft-agar plus the compound at the same concentration than in the upper layer. Cells were incubated at 37° C. for 1 week before they were analysed using a phase contrast microscope (Nikon). For 3D growth experiment in Matrigel, 10^4 HCT116 cells were resuspended in 300 μl of complete medium containing 5 mg/ml Matrigel (BD, France) and different concentrations of compound (0.1, 1, 10, 17.5, 25 and 50 μM), and poured in 24-well plates. After solidification at 37° C. for 15 min., complete medium containing the compound was added to each well. Cells were incubated for 1 week before they were collected using Matrisperse (BD, France) according to the manufacturer's instructions. After recovery, alive cells were counted with trypan blue exclusion.

[9] = system: MDA-MB-231 cells; assay: Matrigel invasion assay (Boyden chamber); type: cell-based, human
Method in brief: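 MDA-MB-231 cells were pretreated overnight with compound (1, 10, 17.5, 25, 50 μM). 10^5 cells in serum-free 0.1% BSA medium with compound were placed on 8 μm membranes coated with Matrigel (125 μg/cm^2), with 10% FBS plus compound below. After 6 h at 37 °C, cells on the filter underside were Diff-Quick stained and counted.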

[10] = system: Ras; assay: Ras-dependant signaling pathway analysis (reporter system); type: cell-based; parameters: key: −: no effect of the compound was observed; +: an effect of the compound was observed
Experimental: (§2) The impact of the compounds on Ras and Rac signaling pathways was analysed with two reporter systems described by Imler (Nature 1988) and Lin (Science, 1995) respectively on one hand, and by a colony formation assay in the presence of constitutively activated Ras (RasV12) and Rac (RacV12) on the other hand. For this latter experiment, fifty percent confluent NIH3T3 cells in a 10 cm diameter petri dish were transfected with 0.5 μg pSV2-RasV12 or 0.5 μg pEXV RacV12 plasmids plus 100 ng of pSV2-neomycin plasmid using Lipofectamine-Plus reagent (Invitrogen) according to the manufacturer's instructions. Forty-eight hours later, cells were trypsinised, splitted to ⅓, and incubated in the presence of complete medium supplemented with 400 μg/ml geneticin (Invitrogen) and different doses of compound (1, 10, 17.5, 25 and 50 μM) until emerging resistant clones appear (2-3 weeks). The medium was renewed every 3 days. Colonies with a minimum of 50 cells were counted after staining with Fuschin 2%.

[11] = system: NIH3T3 cells; assay: Colony formation assay with constitutively activated Ras (RasV12) and Rac (RacV12); type: cell-based, mouse; parameters: key to Colony formation: −: no effect of the compound was observed; +: an effect of the compound was observed
Experimental: as §2

[12] = system: cell architecture; assay: Cell architecture modification, phase contrast; type: cell-based; parameters: key: −: no effect of the compound was observed; +: an effect of the compound was observed
[13] = system: NIH3T3; assay: Cytoskeleton analysis, actin staining (FITC-phalloidin); type: cell-based, mouse
Experimental: (§3) Since major rearrangements of cytoskeleton are observed in tumor cells and since the small GTPases are known to regulate these events, analysis of actin cytoskeleton was performed. Subconfluent cells seeded onto coverslips were treated with different concentration of compound (1, 10, 17.5, 25 and 50 μM) or vehicle for 24 h, before being fixed in 4% formaldehyde for 15 min., permeabilized in 0.2% Triton X100 for 5 minutes and incubated in PowerBlock (Biogenex) for 10 min. Actin filaments were stained with 0.5 μg/ml fluorescein isothiocyanate (FITC)-labelled phalloidin for 1 hour. Analysis was performed using an inverted fluorescent microscope.

[14] = system: H460; assay: as above; type: cell-based, human; conditions: 24 h treatment
Experimental: as §3

[15] = system: HCT116; assay: as above; type: cell-based, human; conditions: 24 h treatment
Experimental: as §3

[16] = system: MDA-MB-231 cells; assay: Migration assay (Boyden chamber, non-coated filters); type: cell-based, human; conditions: MDA-MB-231, Boyden chamber
Experimental: One day after seeding, 10^6 MDA-MB-231 cells were treated overnight with different concentrations of compounds (1, 10, 17.5, 25 and 50 μM). Cells were collected with Versene (Invitrogen), counted with trypan blue exclusion, rinsed twice in serum-free medium containing 0.1% BSA and resuspended in serum-free medium containing 0.1% BSA plus the appropriate concentration of compound. 10^5 treated cells were placed in the upper chamber. Medium containing 10% of FBS plus the appropriate concentration of compound was placed in the lower chamber as a chemoattractant. The Boyden chamber was incubated 6 hours at 37° C. before the cells were fixed and stained with Diff-Quick (Dade-Berhing). Cells on the upper part of the filters were removed using a cotton swab. Cells on the underside of the filters were visualised and counted under light microscope.
The migration assay was performed the same way, using non-coated filters.

What does the source list for CCCc1ccccc1OCCCCCOc1coc(CO)cc1=O [EH18900, 5-[5-(2-Propylphenyloxy)pentyloxy]-2-(hydroxymethyl)-4H-pyran-4-one]?
IC50 [1]: 40 µM; IC50 [2]: 30 µM; IC50 [3]: 50 µM; IC50 [4]: > 50 µM; IC50 [5]: 17.5 µM; IC50 [6]: 0.5 µM; IC50 [7]: 35 µM; IC50 [8]: 1 to 5 µM; concentration giving an increase in invasive properties of MDA-MB-231 cells [9]: 50 µM; Invasion ([9]; MDA-MB-231, Boyden chamber, matrigel): Increase; Small GTPases activities Ras [10]: −; Colony formation [11]: +; Ras-dependent neoR clones formation ([11]; NIH3T3 transfected with RasVal12): inhibited; Cell architecture modification phase contrast [12]: +; Cell architecture modification actin staining (R: ruffles; FC: focal complexes) NIH3T3 ([13]; 24 h treatment): R-, FC+; concentration at which specific inhibition of membrane ruffles and increase in the number of stress fibers was observed ([13]; NIH3T3, actin staining): 10 µM; Cell architecture modification actin staining H460 [14]: cell spreading; Cell architecture modification actin staining HCT116 [15]: cell spreading; Migration [16]: no effect
